Measured values as given in paper PMC12439480, “Dimeric CCK2R radiotheranostic tracers synergize with mTOR inhibition for enhanced tumor therapy” (Theranostics, 2025).
Numbered stars: 1 amine (or outer) side, 2 acyl side, 3 side chain; on linkers, the order of the positions; unused ones are H or OH. Square brackets hold non-standard residues; d marks the D form. Side chains are listed from the residue outwards. Peptide text beside a SMILES is read from it. * marks the point of attachment. DOTA = O=C(O)CN1CCN(CC(=O)O)CCN(CC(=O)*)CCN(CC(=O)O)CC1; d(γGlu) = O=C(O)[C@@H](CCC(=O)[*:2])N[*:1]; 1Nal = N[C@@H](Cc1cccc2ccccc12)C(=O)O; NMeNle = CCCC[C@H](NC)C(=O)O; PEG4 = NCCOCCOCCOCCOCCC(=O)O

Assays:
[1] = parameters: species or system KM mice; settings: mouse, in vivo, iv
Experimental: To evaluate the clearance rates of [^68Ga]Ga-DOTA-CCK2R-dimer and [^68Ga]Ga-DOTA-CCK-66 from the blood, a pharmacokinetic study was conducted in male KM mice (4-6 weeks old, 18-20 g, n = 5/group). Each mouse received 3.7 MBq of radiotracer via tail vein injection, corresponding to approximately 120 pmol of [^68Ga]Ga-DOTA-CCK2R-dimer or 210 pmol of [^68Ga]Ga-DOTA-CCK-66. Blood samples were collected from the tail vein into preweighed capillary tubes at 1, 3, 5, 10, 15, 30, 60, 90, 120, and 150 min post-injection. The radioactivity of the blood samples was measured using a γ-counter, and the percent of injected dose per gram of tissue (%ID/g) was calculated. Additionally, we assessed the in vivo stability of [^177Lu]Lu-DOTA-CCK2R-dimer. Mice were intravenously injected with 7.4 MBq (≈ 240 pmol) of [^177Lu]Lu-DOTA-CCK2R-dimer (dissolved in 200 μL of saline; n = 3/group). Urine samples were collected at 1, 4, and 24 hours post-injection, then diluted, filtered through a 0.22 μm membrane, and analyzed by radio-HPLC.
All animal studies were approved by the Ethics Committee of Fudan University […]
Shanghai Cancer Center (No. FUSCC-IACUC- S2023- 0003). […]
Pharmacokinetics in Normal Mice
F or the pharmacokinetics study, […] male KM mice (4 - 6 weeks old, weighing 18 - 20 g) were administered either [68Ga]Ga-D O TA -CCK2R-dimer or [68Ga]Ga-D O TA -CCK- 66 (3.7 MBq per mouse, n = 5/group) via tail vein injection.
Blood samples were collected from the tail vein using pre-weighed capillary tubes at […]
(§1) Radioactivity levels were measured using a gamma counter, with decay correction applied based on the injection time. The percentage of injected dose per gram of tissue (%ID/g) was calculated for each time point. […]

AR42J tumor-bearing mice [2] = assay: in vivo; parameters: species or system BALB/c nude mice; settings: mouse, 1 h
Experimental: To complement the imaging studies, biodistribution experiments were performed. AR42J tumor-bearing mice were intravenously injected with 3.7 MBq of [^68Ga]Ga-DOTA-CCK2R-dimer (≈ 120 pmol) or [^68Ga]Ga-DOTA-CCK-66 (≈ 210 pmol) (dissolved in 200 μL of saline; n = 3/group). The mice were sacrificed at 30, 60, and 120 min post-injection, and the tissues of interest were excised, weighed, and analyzed for radioactivity using a γ-counter. For blocking studies, a 400-fold excess of the lead compound was co-administered, and the mice were sacrificed at 1 h post-injection.
All animal studies were approved by the Ethics Committee of Fudan University
Shanghai Cancer Center (No. FUSCC-IACUC- S2023- 0003). Five-week-old female
BALB/c nude mice were purchased from Shanghai SLAC Laboratory Animal
Company. To establish cell-derived xenograft (CDX) models, 1 × 10⁶ AR42J cells
(100 μL) were subcutaneously inoculated into the right shoulder of each mouse. […]

[3] = parameters: species or system mice; settings: mouse, in vivo, 24 h
Experimental: In vitro stability was evaluated by incubating ~37 kBq of each radiotracer in PBS or human serum at 37 °C (n = 3). […] To further assess the in vivo stability of [^177Lu]Lu-DOTA-CCK2R-dimer, mice (n = 3) were intravenously injected with 3.7 MBq of the radiotracer in 200 μL of saline. […] The radioactivity of the blood samples was measured using a γ-counter, and the percent of injected dose per gram of tissue (%ID/g) was calculated. Additionally, we assessed the in vivo stability of [^177Lu]Lu-DOTA-CCK2R-dimer. Mice were intravenously injected with 7.4 MBq (≈ 240 pmol) of [^177Lu]Lu-DOTA-CCK2R-dimer (dissolved in 200 μL of saline; n = 3/group).

AR42J tumor-bearing mice [4] = assay: Ex vivo biodistribution of 177Lu-labeled compound; parameters: species or system BALB/c nude mice; settings: mouse, in vivo
Experimental: To evaluate the biodistribution of [^177Lu]Lu-DOTA-CCK2R-dimer, AR42J tumor-bearing mice received intravenous (i.v.) injections of 3.7 MBq (≈ 120 pmol) of [^177Lu]Lu-DOTA-CCK2R-dimer (dissolved in 200 μL of saline; n = 3/group), and Mice were sacrificed at 1, 4, 24, 48, 72, and 96 h post-injection. The tissues of interest were excised, weighed, and analyzed for radioactivity using a γ-counter.
All animal studies were approved by the Ethics Committee of Fudan University Shanghai Cancer Center (No. FUSCC-IACUC- S2023- 0003). Five-week-old female BALB/c nude mice were purchased from Shanghai SLAC Laboratory Animal
Company. To establish cell-derived xenograft (CDX) models, 1 × 10⁶ AR42J cells (100 μL) were subcutaneously inoculated into the right shoulder of each mouse. […]
as §1

AR42J tumor-bearing mice [5] = assay: Toxicity studies (blood count, blood biochemistry, histopathology)
Experimental: On day 12 post-treatment, the tumor tissues were processed and subjected to scRNA-seq and immunohistochemical (IHC) analysis (see Supplementary Methods, Section S4). […] Toxicity studies were conducted when the mice reached one of the predefined endpoints (Supplementary Methods, Section S6). […]
Section S6: Toxicity Studies
Blood samples were collected retro-orbitally using a glass capillary tube when mice reached one of the predefined endpoints. The samples were then centrifuged at 6,000 rpm for 10 minutes (Centrifuge 5417R, Eppendorf SE, Enfield, CT, USA), and the supernatant was transferred into a preventive care profile plus rotor for analysis of RBC, WBC, PLT, ALT, AST, ALP, BUN, and CREA. Sample analysis was performed

## CCCC[C@@H](C(=O)N[C@@H](CC(=O)O)C(=O)N[C@@H](Cc1cccc2ccccc12)C(N)=O)N(C)C(=O)[C@H](Cc1c[nH]c2ccccc12)NC(=O)CCOCCOCCOCCOCCNC(=O)CC[C@@H](NC(=O)CC[C@H](NC(=O)CN1CCN(CC(=O)O)CCN(CC(=O)O)CCN(CC(=O)O)CC1)C(=O)N[C@H](CCC(=O)NCCOCCOCCOCCOCCC(=O)N[C@@H](Cc1c[nH]c2ccccc12)C(=O)N(C)[C@@H](CCCC)C(=O)N[C@@H](CC(=O)O)C(=O)N[C@@H](Cc1cccc2ccccc12)C(N)=O)C(=O)O)C(=O)O [[68Ga]Ga-DOTA-CCK2R-dimer] [metal not drawn] ({DOTA}-E([d(γGlu)-PEG4-Trp-NMeNle-Asp-1Nal-NH2])[d(γGlu)][PEG4]W[NMeNle]D[1Nal]-NH2)
[1]
  t1/2α: 37.8 s
AR42J tumor-bearing mice [2]
  Bladder uptake: 0.99 ± 0.77 %ID/g
  Heart uptake: 0.2 ± 0.15 %ID/g
  Kidney uptake: 12.32 ± 8.97 %ID/g
  Liver uptake: 3.88 ± 2.47 %ID/g

## CCCC[C@@H](C(=O)N[C@@H](CC(=O)O)C(=O)N[C@@H](Cc1cccc2ccccc12)C(N)=O)N(C)C(=O)[C@H](Cc1c[nH]c2ccccc12)NC(=O)CCOCCOCCOCCOCCNC(=O)CC[C@@H](NC(=O)CC[C@H](NC(=O)CN1CCN(CC(=O)O)CCN(CC(=O)O)CCN(CC(=O)O)CC1)C(=O)N[C@H](CCC(=O)NCCOCCOCCOCCOCCC(=O)N[C@@H](Cc1c[nH]c2ccccc12)C(=O)N(C)[C@@H](CCCC)C(=O)N[C@@H](CC(=O)O)C(=O)N[C@@H](Cc1cccc2ccccc12)C(N)=O)C(=O)O)C(=O)O [[177Lu]Lu-DOTA-CCK2R-dimer] [metal not drawn] ({DOTA}-E([d(γGlu)-PEG4-Trp-NMeNle-Asp-1Nal-NH2])[d(γGlu)][PEG4]W[NMeNle]D[1Nal]-NH2)
[3]
  compound remaining intact in urine (radiochemical purity): more than 96%
AR42J tumor-bearing mice [4]
  Tumor-to-Muscle ratio (T/M): 90.85
AR42J tumor-bearing mice [5]; mouse, in vivo
  ALP: 135.99 ± 24.61 U/L
  ALT: 44.93 ± 6.41 U/L
  AST: 87.94 ± 5.64 U/L
  GRA: 28.7 ± 8.16%
  GRA#: 0.20 ± 0.07 109/L
  HCT: 19.2 ± 5.20%
  HGB: 151.67 ± 19.64 g/L
  LYM: 52.27 ± 2.74%
  LYM#: 0.38 ± 0.14 109/L
  MCH: 41.83 ± 6.37 pg
  MCHC: 714 ± 42.04 g/L
  MCV: 51.63 ± 0.81 fL
  MON: 19.03 ± 9.18%
  MON#: 0.15 ± 0.13 109/L
  P-LCR: 35.87 ± 5.49%
  PCT: 0.16 ± 0.04%
  PDW: 28.67 ± 2.04 fL
  PLT: 116 ± 13.08 109/L
  RBC: 4.72 ± 0.81 1012/L
  RDWCV: 10.77 ± 0.40%
  RDWSD: 22.33 ± 1.15 fL
  UA: 126.33 ± 13.85 µmol/L
  UREA: 3.25 ± 0.56 mmol/L
  WBC: 7.0 ± 2.65 109/L
AR42J tumor-bearing mice [5]; post-treatment CBC
  MPV: 12.2 ± 0.61 fL
